Results on 2 compounds are retold here after patent US10391180B2, “Self-assembling complex for targeting chemical agents to cells” (CEDARS-SINAI MEDICAL CENTER, priority 2007, dated 2019).

Data set [1] deals with bilateral flank tumors (HER2+). The experiment in a line: In vivo tumor toxicity, tumor growth. Also noted: species or system mice. The conditions noted are these: daily tail vein injections, 0.004 mg/kg Dox conc, 7 consecutive days. Here is the method:
(§1) FIGS. 12 (A)-(D) illustrates comparison of HerDox and Dox on (A) tumor growth, (B) animal weight, (C) cardiac tissue, and (D) cardiac function.
To assess in vivo tumor toxicity, mice bearing 3-4 week bilateral flank tumors began receiving daily tail vein injections of Dox or HerDox (0.004 mg/kg with respect to Dox conc), HerPBK10 alone (at equivalent protein concentration to HerDox) or saline for 7 consecutive days.

The test system of another data set is MDA-MB-231 (HER2−) cells. The experiment in a line: Targeted toxicity, MTT assay, separate dishes. In kind it is cell-based. The conditions noted are these: HerDox/Dox 0.5 uM Dox; HerPBK10 0.1 uM; day 3. Here is the method: (§2) FIG. 7 illustrates targeted toxicity. Each cell line was exposed to HerDox (0.5 uM Dox cone), Dox alone (0.5 uM), or HerPBK10 alone for 4 h at 37° C. in complete (i.e. serum-containing) media, followed by aspiration to remove free conjugate, and addition of fresh medium while cells are grown continuously. Cell titer was determined by metabolic (i.e. MTT) assay. FIG. 7 upper panel illustrates the effect of HerDox on MDA-MB-231 (HER2−) and MDA-MB-435 (HER2+) cell survival. Relative surviving cell numbers are represented as a % of corresponding untreated cells. FIG. 7 lower panel illustrates comparison of HerDox, Dox alone, or HerPBK10 alone on HER2− and HER2+ cell survival. Relative survival (as % of untreated cells) is shown for Day 3 of treatment.
(§3) The inventors compared the effect of HerDox or Dox alone at equivalent dosages (0.5 uM with respect to Dox concentration) on HER2+ and HER2− breast cancer cells in separate dishes. By three days, HerDox reduced HER2+ cell numbers by over 75% whereas HER2− cell survival was unaffected (FIG. 7). […] These findings emphasize the importance of targeting by showing that the untargeted drug affects nontarget (i.e. HER2−) cells. Importantly, the protein carrier, HerPBK10, alone at the equivalent concentration of protein in HerDox (0.1 uM) had no effect on either cell line (FIG. 7), including a lack of proliferation induction. To test receptor targeting, the inventors used free heregulin ligand (Her or eHRG) as a competitive inhibitor. […] As a final in vitro challenge, the inventors tested whether HerDox induces toxicity specifically to HER2+ cells in a mixed culture of HER2+ and HER2− breast cancer cells. To do this, the inventors produced a HER2− cell line tagged with green fluorescent protein (GFP) for cell identification in the mixed culture (FIG. 9 (A)). […] Altogether, these findings indicate that HerDox has the capacity to preferentially target toxicity to HER2+ cells. […] Moreover, the preferential cell killing of HER2+ cells in a mixed culture of HER2+ and HER2− cells implies that after death and lysis of the target cells, the Dox released into those cells is incapable of continuing to induce toxicity to HER2− cells. To further confirm the stability of HerDox in cell culture, HerDox was recovered from culture media in separate experiments at indicated time points and electrophoresed on an agarose gel, which was then illuminated by UV to detect Dox and stained with Coomassie blue to detect HerPBK10 protein (FIG. 9 (C)). […] Co-migration of HerPBK10 bands further verified that the conjugates remained intact in the cell media.
For orientation: Formazan colour is commonly taken as a measure of viable cells.

A further data set relates to MDA-MB-435 (HER2+) cells. The experiment in a line: Targeted toxicity, MTT assay, separate dishes. In kind it is cell-based. The conditions noted are these: Dox 0.5 uM; HerPBK10 0.1 uM; day 3. How it is done: as §2, §3
Data set [2] has as its system MDA-MB-435 cells. The data set can be described thus: HerPBK10 binding to cells in human serum, ELISA. In kind it is cell-based. The conditions noted are these: 1.2 ug/well, cells exposed 2 hours to human sera. How it is done: FIG. 16 illustrates HerPBK10 binding to MDA-MB-435 cells in human serum from HER2+ or HER2− breast cancer patients. Cells were treated with HerPBK10 (1.2 ug/well) in media containing human serum from each of 5 HER2+ breast cancer patients or age matched HER2− controls, both obtained pre-chemotherapy treatment. Cells were processed for ELISA using an antibody directed at HerPBK10. Control (C) wells receiving HerPBK10 in media containing bovine serum without or with 100× molar excess competitive ligand inhibitor (+ Her) are indicated by open bars. Patient sera were provided by the WCRI tissue bank at Cedars-Sinai Medical Center. N=3 wells per treatment.
To determine whether HerPBK10 can compete with circulating ligand that may be present in serum, the inventors tested HerPBK10 binding to HER2+ breast cancer cells in human serum obtained from HER2+ patients. The Women's Cancer Research Institute at Cedars-Sinai occasionally acquires limited quantities of patient serum, of which sera from HER2+ patients comprises an even smaller minority. […] Here, the inventors replaced the bovine serum in the routine culturing media with the human serum obtained from the acquired patient samples to assess whether the human serum, especially from HER2+ patients, inhibits cell binding. […]
On the technique in general: In an ELISA, binding on a coated surface is turned into a signal by an enzyme label.

The conditions of data set [3]: in the presence of serum; cited from earlier work.
The subject of data set [4] is MDA-MB-435 cells. The data set can be described thus: Intracellular translocation in live cells, Dox fluorescence microscopy. Format: cell-based. How it is done: FIGS. 14 (A)-(B) illustrates comparison of HerDox and Dox intracellular translocation and targets in live cells. MDA-MB-435 cells were incubated with HerDox or free Dox (0.5 uM) at 37° C. Live (unfixed) cells were imaged by brightfield and fluorescence as depicted in […], or DIC and confocal fluorescence, as depicted in FIG. 14 (B), microscopy. Dox is indicated by red or magenta pseudocolor.
To understand the mechanism of HerDox mediated tumor cell death, the inventors examined HER2+ cells microscopically after treatment with HerDox, using Dox fluorescence to detect intracellular location. […] These dynamics, in addition to earlier targeting results, support a receptor-mediated HerDox entry mechanism. Even the intranuclear pattern of Dox when delivered by HerPBK10 differs from free Dox.

A further data set concerns HER2+ tumors. The data set can be described thus: HerDox vs Dox biodistribution by Dox fluorescence imaging. Format: in vivo, mice. Here is the method: FIGS. 11 (A)-(B) illustrates preferential targeting of HerDox to HER2+ tumors. Tumor-bearing mice were injected with 0.75 nmoles of HerDox or Dox via the tail vein and imaged with a custom small animal imager. FIG. 11 (A) depicts imaging of live mice after IV delivery of HerDox. Tumors are indicated by arrows. FIG. 11 (B) depicts imaging of tumors and tissues harvested at 3 h after injection of HerDox or Dox. Fluorescence signal from Dox is pseudo-colored according to the color bar, with a shift toward 100 indicating high fluorescence intensity. FIG. 11 (B) illustrates a comparison of the targeted delivery of Dox to HER2+ breast cancer cells with minimal delivery to other organs and tissues using a delivery system in accordance with an embodiment of the present invention (left panel), as compared with Dox administered alone (right panel).
Dox emits a red fluorescence upon appropriate wavelength excitation, which can be used to detect biodistribution after systemic delivery of HerDox. Mice bearing 4-week old) tumors (˜700-800 mm^3) received a single tail vein injection of Dox or HerDox ([…] with respect to Dox cone) and images of live mice captured in real time, or of organs/tissues harvested at ˜3 h postinjection were acquired using a customized macro-illumination and detection system. Fluorescence was evident throughout the body at 10 min after HerDox injection, then quickly accumulated at the tumors by 20 min and remained detectable in the tumors up to 100 min after injection (FIG. 11 (A)).

Another data set deals with hearts of mice. The experiment in a line: Cardiac tissue histology and echocardiography. Format: in vivo.
Source text: as §1
At 25 days following injections, tumors and organs were harvested and processed for histochemistry. It is established that Dox can induce acute and long-term cardiotoxicity, therefore, the inventors examined the hearts of mice treated with HerDox or Dox.

The mark [5] stands for this setting: harvested at 3 h after injection.

Take “HerPBK10: receptor binding domain of heregulin fused to adenovirus penton base protein modified by a C-terminal decalysine”: the tumor growth result in data set [1] is reported as “no effect”. The “effect on HER2− cell survival” value in the data set on MDA-MB-231 (HER2−) cells was “no effect”. Besides, the “effect on HER2+ cell numbers” value with MDA-MB-435 (HER2+) cells is on record as “no effect”. Moreover, in the data set on MDA-MB-435 cells [2], the “cell binding in serum from HER2+ patients, HER2− patients, or bovine serum” value is listed as “no significant differences”. In addition, the “receptor targeting under physiological conditions” value in data set [3] was “retains receptor targeting”.
Turning to `COc1cccc2c1C(=O)c1c(O)c3c(c(O)c1C2=O)C[C@@](O)(C(=O)CO)C[C@@H]3O[C@H]1C[C@H](N)[C@H](O)[C@H](C)O1` [Dox, doxorubicin, reference compound], the tumor growth result in data set [1] was “slows tumor growth”. Moreover, the “effect on HER2− cell survival” value in the data set with MDA-MB-231 (HER2−) cells is “reduced both HER2+ and HER2− cells by the same order of magnitude”. For the same compound, the “effect on HER2+ cell numbers” value with MDA-MB-435 (HER2+) cells was “reduced both HER2+ and HER2− cells by the same order of magnitude”. The “intracellular location of Dox fluorescence” value with MDA-MB-435 cells [4] (0.5 uM, 0 min of uptake) was “inside the cell at the nuclear periphery”. Moreover, the “intranuclear pattern of Dox” value in the data set on MDA-MB-435 cells [4] (live cells, confocal) is recorded as “accumulates in the cell nucleus”. In the data set on HER2+ tumors (setting [5]), the “Dox fluorescence in kidneys” value is “detectable fluorescence”, the “Dox fluorescence in liver” value is listed as “detectable fluorescence” and the “Dox fluorescence in tumors” value is listed as “detectable fluorescence”. Moreover, the “Dox fluorescence in lungs and skeletal muscle” value in the data set with HER2+ tumors (harvested ~3 h after injection, equivalent dose of Dox) is on record as “Lower levels of fluorescence”. Also, in the data set with hearts of mice (25 days following injections), the “gross appearance of hearts” value was “slightly enlarged and dilated”; the “myocardium morphology (histochemistry)” value is “focal degeneration, myofibrillar loss, increased cytosoplasmic vacuolization, and nuclear condensation or dissolution”. Also, in the data set on hearts of mice (treated mice), the “echocardiogram: stroke volume, cardiac output, left ventricular internal dimension and volume” value is “modest to marked reductions”.
